Test results as given in patent EP1785722A1, “Microbial, viral and mammalian susceptibility to agents that affect cell growth and metabolism, and compatibility of compounds” (Stratos Bio Ltd., priority 2005, dated 2007).

Experiments:
[1] = system: B. pumilus; experiment: MIC determination against B. pumilus; type: cell-based, Bacillus pumilus
Procedure: (§1) However when the concentration of organisms was 5.1 x 10^6 cfu/ml which was the inoculum used in the microcalorimetric incubations the MIC was increased to 2 µg/ml; the effect was also bacteriostatic.

[2] = system: Bacillus pumilus; experiment: Flow microcalorimetry (p-t curves) of growing Bacillus pumilus; type: cell-based
Description: (§2) • a) For B. pumilus a simple glucose/salts medium was employed with a glucose concentration of 0.1 % w/v. • b) For Bord. bronch. The above salts medium was used with the addition of nicotinic acid, methionine and glutamic acid. Glutamic acid was used at a concentration of 0.2% w/v. • c) For M. flavus a semidefined medium was employed, using the same salts as a B. pumilus but also Na-citrate, biotin and protease peptone. In the calorimeter a concentration of 0.4% protease peptone was used. All medium constituents (except protease) were analytical reagents. The calorimetric medium was therefore a final concentration of 100ml of either solution a, b or c freshly autoclaved for 15 mins exactly at 121°C, 151b/sq inch. Glucose was added to the appropriate solution after autoclaving.
(§3) To the vertical face of the vessel close to its base, equidistantly spaced around the circumference, ports were fitted for an oxygen electrode and for sampling/inoculation. The fermenter was closed with a flat flanged glass lid which had five ports accommodating respectively, gas inlet tube, gas exhaust (via air condenser), inlet and outlet flow-lines to and from the calorimeter. The fermenter and lid was sealed with a p.t.f.e. gasket and clamped with a metal clip. The fermenter was placed on a magnetic stirring unit in a water jacket which allowed circulation of the thermostatically controlled water at 30°C or 37°C. The fermenter which contained a Teflon coated magnetic stirring bar, was sterilised by autoclaving.
(§4) For a typical calorimetric incubation the medium was passed through the calorimetric vessel at the same flow rate and temperature as those used in the experiment to establish a steady baseline deflection. The following operations then took place to a strict timetable. The liquid nitrogen stored ampoule was thawed at 38°C for 3 min and then stirred for 20 sec on a whirlimixer. The bacterial suspension (0.5-1.5ml) volumes was inoculated into the medium (100ml) two minutes after completion of thawing. A Gilson automatic pipette was used for inoculation. The calorimeter inlet flow-line was placed in the incubation medium 30 seconds after inoculation. The flowing incubation medium reached the calorimetric vessel two min after inlet flow-line insertion. At this time the recording of the p-t curves was started. Eight min after inoculation the outflow from the calorimeter was returned to the fermenter (after the "baseline" medium had run to waste but before the inoculated medium ran to waste) thus making a closed system. Aeration was started as soon as the inlet tube was inserted in the fermenter. Microbiological purity of the culture was checked by plating out a sample of the culture at the end of each incubation on nutrient agar (lab M).
(§5) The output of calorimetric experiments is a plot of power (energy evolution per unit of time) as a function of time. The unit of power (p) is the Watt (W) and the unit of time is the hour (h). In some experiments seconds (s) were used as time unit.
as §1

[3] = system: Micrococcus flavus; experiment: MIC / MBC against Micrococcus flavus; type: cell-based; conditions: as printed in table heads
[4] = system: Micrococcus flavus; experiment: Flow microcalorimetry (p-t curves) of growing Micrococcus flavus; type: cell-based; conditions: single antibiotic at its MIC (4 ug/ml Neo; 2ug/ml POLB)
Description: as §2, §3, §4, §5
This point occurred at an increase in deflection of 29.5% from the baseline value.

[5] = system: Bordetella Bronchiseptica; experiment: MIC / MBC against Bordetella bronchiseptica; type: cell-based
[6] = system: Bordetella Bronchiseptica; experiment: Flow microcalorimetry (p-t curves) of growing Bordetella bronchiseptica; type: cell-based
Description: as §2, §3, §4, §5
After successful freezing of Bord. bronch p-t curves for growth in different concentrations of glutamic acid from 0.1%-0.5% were obtained. It was concluded that a medium containing 0.2% glutamic acid would be sufficient for a good deflection in the microcalorimeter minimising the possibility of the bacteria clogging in the microcalorimetric cell or in the teflon tubes leading to and from the microcalorimetric cell. A pH of 7 was used in all the following experiments as this is the optimum pH for polymyxin - lipid binding.
It was of vital importance to maintain a constant oxygen tension; this was achieved by using saturation concentrations of oxygen. It was decided to use the height of the small peak as full scale deflection for the antibiotic assay as the increase in power was exponential up to this point and the peak occurred at a convenient time. This choice of assay point was empirical. The inoculum was 1.1 ± 0.06 x 10^8 cfu/ml for all the microclalorimetric incubations. […]

[7] = system: E. coli; experiment: MIC / MBC against E. coli; type: cell-based
[8] = system: respiring E.coli; experiment: Microcalorimetry of respiring E. coli in glucose buffer; type: cell-based
Procedure: E.coli was suspended in 10% DMSO prior to freezing and the viable counts were for batch 1: pre-freeze: 4.0 ± 0.6_ x 10^10 cfu/ml and post -freeze 2.0 ± 0.44 x 10^10 cfu/ml and for batch 2: pre-freeze: 3.45 ± 0.58 x 10^10 cfu/ml and post-freeze 2.93 ± 0.43 x 10^10 cfu/ml. The freezing rate for both batches was 20°C/min the survival rate was 50% for batch 1 and 85% for batch 2. These differences may have been due to batch 1 being kept for 24h at 4°C before being frozen.
The respiration experiments were carried out in glucose buffer at different pH. The respiration curves obtained from batch 1 (inoculum 2 x 10^10 cfu/ml) and batch 2 Inoculum 3.2 x 10^10 cfu/ml) were essentially similar and a mean was used as a reference). The respiration experiments were carried out at pH 7 for polymyxin and Znbacitracin and at pH 8 for neomycin. No differences in p-t control curves could be observed at pH 7 or pH 8.
The p-t curves rose and reached a plateau as has been observed for respiration of yeasts and some 20 min later fell to a lower plateau value. Prior incubation of the cells in the buffered glucose for periods up to 20 min before presentation to the calorimeter could reduce or entirely remove this effect.

[9] = 0.25 ug/ml added at 0 % of p-t curve

Compound: Polymyxin B sulphate
- MIC ([1]; as printed in table heads): 20 µg/mL
- time until growth was inhibited completely ([2]; 20ug/ml POLB, pH 8.00): Within 9 hours growth was inhibited completely
- MIC [3]: 2 µg/mL
- Observed effect on p-t curves [4]: Slightly delayed peak
- MBC ([5]; as printed in table head): Ug/ml MIC & MBC 2 ug/ml
- MIC ([5]; as printed in table heads): Ug/ml MIC & MBC 2 ug/ml
- MIC ([5]; listed as POL): 2 µg/mL
- MBC ([5]; text): 2 µg/mL
- MIC ([5]; text): 2 µg/mL
- concentration above which the declines were identical [6]: > 3.5 x MIC
- time to observable response after addition [6]: ≤ 5 min
- Observed effect on p-t curves ([6]; 0.07 ug/ml added at 18 % of p-t curve): No effect on growth curve
- response of p-t curve ([6]; 0.033 x MIC (0.07 µg/ml)): no response to the antibiotic was observed
- Comments ([6]; 0.35 -2 ug/ml added at 18 % of p-t curve): All curves return to baseline confirmed bacteriocidal action
- Observed effect on p-t curves ([6]; 0.35 -2 ug/ml added at 18 % of p-t curve, CV 2.5%): Linear log dose response 10 min after addition of antibiotic CV 2.5%
- time to sharp decline in heat output after addition ([6]; 0.5 x MIC): ≤ 10 min
- mode of action ([6]; at MIC values): bactericidal
- MBC ([7]; as printed in table head): 6.3 µg/mL
- MIC ([7]; as printed in table head): 6.3 µg/mL
- MBC ([7]; text): 6.3 µg/mL
- MIC ([7]; text): 6.3 µg/mL
- sensitivity of the assay [8]: 3 µg/mL
- effect on p-t curve ([8]; Fig. 15): reduced the initial peak height and thereafter the p-t curve returned to baseline
- Comments ([8]; POLB 6.3 ug/ml): Bacteriocidal action demonstrated
- time to return to baseline (after reduced height of p-t curve initially) ([8]; POLB 6.3 ug/ml, pH 7): Reduced height of p-t curve initially and returned to baseline within 1 hour

Compound: NC[C@@H]1O[C@H](O[C@H]2[C@@H](O)[C@H](O[C@@H]3[C@@H](O)[C@H](N)C[C@H](N)[C@H]3O[C@H]3O[C@H](CN)[C@@H](O)[C@H](O)[C@H]3N)O[C@@H]2CO)[C@H](N)[C@@H](O)[C@@H]1O.O=S(=O)(O)O [neomycin sulphate, Neomycin sulphate]
- effect at MIC ([1]; 5.1 x 10^6 cfu/ml): bacteriostatic
- MIC ([1]; 5.1 x 10^6 cfu/ml, inoculum used in the microcalorimetric incubations): 2 µg/mL
- MIC ([1]; inoculum of 1x10^5 cfu/ml): 0.1 µg/mL
- effect at MIC ([1]; inoculum of 1x10^5 cfu/ml): bacteriostatic
- MIC ([1]; listed as NEO): 1 µg/mL
- Comments [2, 9]: No effect
- Observed effect on p-t curves Related to standard growth curve [2, 9]: 1X standard curve
- Comments ([2]; 0.5 ug/ml added at 0 % of p-t curve): Inhibition of RNA synthesis
- Comments ([2]; 1 ug/ml added at 10 % of p-t curve): Growth promoting effect potential stimulation of RNA synthesis
- Observed effect on p-t curves Related to standard growth curve ([2]; 1 ug/ml added at 10 % of p-t curve, at 11 h): 1.2 X signal at 11 h
- Comments ([2]; 1 ug/ml added at 15 % of p-t curve): Growth promoting effect potential stimulation of RNA synthesis
- Observed effect on p-t curves Related to standard growth curve ([2]; 1 ug/ml added at 15 % of p-t curve, at 11 h): 1.2 X signal at 11 h
- Comments ([2]; 1 ug/ml added at 25 % of p-t curve): Growth promoting effect potential stimulation of RNA synthesis
- Observed effect on p-t curves Related to standard growth curve ([2]; 1 ug/ml added at 25 % of p-t curve, at 11 h): 5X signal at 11 h
- Comments ([2]; 2 ug/ml added at 10 % of p-t curve): Growth promoting effect potential stimulation of RNA synthesis
- Observed effect on p-t curves Related to standard growth curve ([2]; 2 ug/ml added at 10 % of p-t curve, at 11 h): 1.2 Xsignal at 11 h
- power output ([2]; 0.5 and 1 x MIC (1-2 µg/ml) added after an increase of 10% of full scale deflection): the same effect was observed
- power output ([2]; 0.5 x MIC (1µg/ml) added after a 25% increase power output): massive power output 2-4h after addition
- Comments ([2]; > 2 ug/ml added at 10 % of p-t curve): Inhibition of RNA synthesis Possible to achieve linear dose-response at 7 hours after addition of antibiotic to the bacterial culture, after 11 hours heat-out put levels off b ut do not return to baseline indicating a bacteriostatic effect and maximum inhibition of RNA synthesis
- Observed effect on p-t curves Related to standard growth curve ([2]; > 2 ug/ml added at 10 % of p-t curve, at 11 h): 0.75 or less at 11 h
- power output ([2]; added after an increase in power output of 15% of full scale deflection): only marginally larger than that observed for the normal growth curve
- power output ([2]; higher concentrations of antibiotic): a decrease in power output was observed
- concentrations at which an increased heat output can be observed ([2]; organism not given): < 1 µg/mL
- MIC [3]: 4 µg/mL
- Observed effect on p-t curves [4]: No effect on p-t curve
- MIC ([5]; as printed in table heads): 0.25 µg/mL
- Observed effect on p-t curves ([6]; single antibiotic at its MIC (0.25ug/ml Neo; 100ug/ml ZNB), added at 50 % of p-t curve): No effect on p-t curve
- MBC ([7]; as printed in table head): 5900 µg/mL
- MIC ([7]; as printed in table head): 5900 µg/mL
- MIC ([7]; text): 500 µg/mL
- effect on power ([8]; Fig. 16): an increase in power
- Comments ([8]; NEO 500 ug/ml): Consistent with increased rate of RNA synthesis
- Observed effect on p-t curves ([8]; NEO 500 ug/ml, pH 8): Increase in heat output
- heat output ([8]; all concentrations): increased heat output
- Linear dose-response between ([8]; table): 10 to 100 µg/mL
- linear relationship between dose and the reciprocal of increase in response from the control curve ([8]; text): 20 to 100 µg/mL
